Key:
Na channel = Na channel blocking activity (local anesthetic effect on the corneal blink reflex); format: in vivo, Male Japanese white rabbits; conditions: 1.0% solution in saline, 50 μl drops to one eye
Procedure: Test on Na channel blocking activity
Male Japanese white rabbits weighing 2.0-3.0 kg were to evaluate the local anesthetic effect of test compound on the corneal blink reflex. Corneal reflexes were elicited by pressing a flexible monofilament (rabbit whisker) against the cornea. 1.0% Test compound solution in saline was applied to one eye (50 μl drops) and the contralateral eye received as a control. Corneal blink responses were scored at 5, and 15 minutes after test compound application.
Local anesthetic activities were expressed as an inhibition percent of blink responses.

[1] = tested on: Urinary Bladder Contractions Induced by Water Filling; assay: Inhibition of Urinary Bladder Contractions Induced by Water Filling in Rats; format: in vivo, Male Sprague-Dawly rats; conditions: Rattus norvegicus; intravenous, anesthetized rats (urethane), hyperactive bladder by water filling
From the text: Test on Inhibition of Urinary Bladder Contractions Induced by Water Filling in Rats
Male Sprague-Dawly rats, weighing 240-450 g, were anesthetized with urethane 1.0 g/kg s.c. The bladder was exposed through a midline incision in the abdomen for the recording of pressure within the bladder as follows; a balloon attached to one end of a stainless steel tube (O.D., 1.2 mm, 5 cm in length) was inserted into the bladder through a small incision in the bladder dome. The other end of the tube was connected to a pressure-transducer. The ureters were ligated and cut, and the proximal cut end was cannulated with polyethylene tubing and the urine was led outside.
Hyperactive urinary bladder (hyperactive contractions of the detrusor muscle) was induced by water filling of the bladder. Therefore, the balloon in the bladder was filled with water of a volume which caused a resting pressure of about 10 mmHg. Systemic blood pressure and heart rate were monitored from the common carotid artery.
When the contractile responses to water filling became constant, test compounds were administered intravenously.

Compound | Inhibition % of blink responses (Na channel; 5 minutes after application) [%] | Inhibition % of blink responses (Na channel; 15 minutes after application) [%] | ED30 [1] [mg/kg]
CC(C)(C)NC1C=CC(c2ccccc2)(c2ccccc2)C1.Cl (single isomer, unassigned; (-)) [(-)-N-t-butyl-4,4-diphenyl-2-cyclopentenylamine hydrochloride] | 100 | 100 | –
CC(C)(C)NC1C=CC(c2ccccc2)(c2ccccc2)C1.CS(=O)(=O)O (single isomer, unassigned; (-)) [(-)-N-t-butyl-4,4-diphenyl-2-cyclopentenylamine methanesulfonate] | – | – | 0.18

Source: US5256824A, “Substituted-amine compound and a process for the preparation thereof” (Fujisawa Pharmaceutical Co., Ltd., priority 1990, dated 1993)
